Test results published in paper PMC5716993, “The interdomain flexible linker of the polypeptide GalNAc transferases dictates their long-range glycosylation preferences” (Nature Communications, 2017).
Entries after “also recorded” stand apart in the source; their conditions may differ.

Target: T1, GalNAc-T4 (Homo sapiens, UniProt Q8N4A0)
T1 construct: amino acid residues 36–578 of the human GalNAc-T4; histidine tag (C); made in house; host or cells: Pichia pastoris SMD1168 (pPICZαA, secreted)
Experiment: STD-NMR binding / epitope mapping
Conditions: for STD-NMR signals of the GalNAc sugar protons: GalNAc moiety, UDP, pH 7.4; for STD-NMR signals of the GalNAc sugar protons / STD-NMR signals (peptide recognition): ~880 μM ligand, 13.5 μM GalNAc-T4, 298 K; for STD-NMR signals of the GalNAc sugar protons / STD-NMR signals (peptide recognition) / STD-NMR-derived epitope mapping of GalNAc moiety: in words; for STD-NMR signals (peptide recognition): in presence of UDP and MnCl2 (75 μM each), pH 7.4 uncorrected, TRIS-d11 D2O; for STD-NMR-derived epitope mapping of GalNAc moiety: normalized to the highest STD response
Protocol: All NMR experiments were recorded on a Bruker Avance 600 MHz spectrometer equipped with a triple channel cryoprobe head. The^1H NMR resonances of the peptides 1–3 were completely assigned through standard 2D-TOCSY (30 and 80 ms mixing time) and 2D-NOESY experiments (400 ms mixing time). Solution conditions used for the NMR characterization studies were 1–3 mM (glyco)peptide, 25 mM perdeuterated tris-d11 in 90:10 H2O/D2O, 7.5 mM NaCl, and 1 mM DTT, uncorrected pH 7.4. The assignments were accomplished either at 278 or 298 K. The resonance of 2,2,3,3-tetradeutero-3-trimethylsilylpropionic acid (TSP) was used as a chemical shift reference in the^1H NMR experiments (δ TSP = 0 ppm). Peak lists for the 2D-TOCSY and 2D-NOESY spectra were generated by interactive peak picking using the computer aided resonance assignment (CARA) software.
Samples for STD experiments were prepared in perdeuterated 25 mM TRIS-d11 in deuterated water, 7.5 mM NaCl, and 1 mM DTT, uncorrected pH 7.4. STD-NMR experiments were performed at 298 K in the presence of 75 μM UDP, 75 μM MnCl2 with ~880 μM peptide (or GalNAc-O-Me) and 13.5 μM GalNAc-T4 giving a molar ratio of 65:1 peptide:GalNAc-T4.
The STD-NMR spectra were acquired with 1920 transients in a matrix with 64 k data points in t2 in a spectral window of 12335.53 Hz centered at 2819.65 Hz. An excitation sculpting module with gradients was employed to suppress the water proton signals. Selective saturation of the protein resonances (on resonance spectrum) was performed by irradiating at −1 ppm using a series of Eburp2.1000-shaped 90° pulses (50 ms, 1 ms delay between pulses) for a total saturation time of 2.0 s. For the reference spectrum (off resonance), the samples were irradiated at 100 ppm. Proper control experiments were performed with the ligands in the presence and absence of the protein in order to optimize the frequency for protein saturation (−1 ppm) and to ensure that the ligand signals were not affected. […] This nonspecific saturation was taken into account, by subtraction, when quantifying the STD-NMR data in the presence of the transferase. As well, a blank STD experiment with only the protein was also recorded. The substraction of this protein STD spectrum allowed eliminating the signal background of the protein. In all cases, to accomplish the STD-NMR-derived epitope mapping of each ligand, the STD-NMR total intensities were normalized with respect to the highest STD-NMR response. For Fig. 2b and Supplementary Fig. 1, the STD response of each amino acid corresponds to the average of STD percentages of all amino acid proton resonances that were measured with sufficient accuracy. The signal of the anomeric proton of as well as, the Hα protons of the Ala amino acids of glycopeptides could not be analyzed in the STD-NMR spectra due to their close proximity to the HDO resonance. Proton resonances, from Gly and Pro, appear in the same chemical shift region of the spectrum and were not discriminated.

T1 sequence (Q8N4A0 36-578): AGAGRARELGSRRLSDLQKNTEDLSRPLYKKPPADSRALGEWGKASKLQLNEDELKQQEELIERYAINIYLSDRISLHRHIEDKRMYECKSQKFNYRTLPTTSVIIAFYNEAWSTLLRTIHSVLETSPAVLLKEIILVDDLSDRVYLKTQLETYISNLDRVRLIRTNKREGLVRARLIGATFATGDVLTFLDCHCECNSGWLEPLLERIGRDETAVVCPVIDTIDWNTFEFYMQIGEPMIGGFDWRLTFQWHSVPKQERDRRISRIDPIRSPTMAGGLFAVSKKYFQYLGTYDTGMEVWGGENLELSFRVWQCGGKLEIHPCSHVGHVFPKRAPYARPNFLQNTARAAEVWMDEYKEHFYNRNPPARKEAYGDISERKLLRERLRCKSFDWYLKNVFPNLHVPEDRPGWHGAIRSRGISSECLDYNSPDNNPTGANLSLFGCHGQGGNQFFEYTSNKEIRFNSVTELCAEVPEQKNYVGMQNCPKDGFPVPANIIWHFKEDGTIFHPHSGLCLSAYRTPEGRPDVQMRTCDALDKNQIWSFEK

Substance | STD-NMR signals of the GalNAc sugar protons (MnCl2) | STD-NMR signals (peptide recognition) | STD-NMR-derived epitope mapping of GalNAc moiety (298 K, pH 7.4, UDP, MnCl2) | STD response, GalNAc H3 (H3 of GalNAc moiety, normalized to highest STD response, 298 K, pH 7.4, UDP, MnCl2) [%] | STD response, GalNAc H4 (H4 of GalNAc moiety, normalized to highest STD response, 298 K, pH 7.4, UDP, MnCl2) [%]
AGAGTTPGPGAGAT*GA [Peptide 2, monoglycopeptide …*GA, T* denotes the Thr-O-GalNAc moiety] | unambiguous and more intense STD-NMR signals; also recorded: GalNAc protons receive much more saturation than the amino acid residues | relatively weak STD-NMR signals were observed for the Ala and Thr methyl protons | the highest STD response corresponded to the H2 proton of the GalNAc moiety followed by a modest STD of protons H4, H3, and N-acetyl group | – | –
GAT*GAGAGAGTTPGPG [Peptide 3, monoglycopeptide GAT*…, T* denotes the Thr-O-GalNAc moiety] | unambiguous and more intense STD-NMR signals; also recorded: GalNAc protons receive much more saturation than the amino acid residues | relatively weak STD-NMR signals were observed for the Ala and Thr methyl protons; also recorded: no significant STD with the acceptor peptide residues | H2, H4, and the N-acetyl group of the GalNAc moiety have the highest STD-NMR response closely followed by the H3 proton | 72 | 92
